Data taken from article PMC5652740, “Inhibition of HIV-1 infection in humanized mice and metabolic stability of protein phosphatase-1-targeting small molecule 1E7-03” (Oncotarget, 2017).
Where two headings read alike, the source gives them in different places.

Assays:
[1] = Pharmacokinetic analysis in mice after i.p. injection; format: in vivo; details: male, BALB/cJ, ip
Method: The animal facilities and protocols were approved by Howard University Institutional Animal Care and Use Committee (IACUC). All experimental procedures were in accordance with the NIH Guidelines for the Care and Use of Laboratory Animals. BALB/cJ male mice (8 weeks old, 25–30 g) were purchased from Jackson Laboratory (Bar Harbor, ME, USA) and housed under pathogen-free conditions in HEPA-filtered cages and kept on a 12 h light/dark cycle. Compounds were administered to mice via intraperitoneal (i.p.) injection with maximum achievable doses of 30 mg/kg 1E7-03 (100 μl injection of 8 mM 1E7-03 in 80% DMSO/20% saline) and 100 mg/kg DP1-07 (100 μl injection of 100 mM DP1-07 in 40% propylene glycol/10% DMSO/50% saline). Blood samples were collected at different time points (15 min, 30 min, 1 hr, 3 hr, 6 hrs and 24 hrs) for each group (n=3 mice per group). For each sample, 20 μl of plasma was mixed with 80 μl cold acetone, and centrifuged at 13,000 rpm for 5 min. The supernatant was transferred to a clean test tube and dried in a SpeedVac concentrator. The residue was re-constituted in 50 μl of acetonitrile for LC-MS analysis. Calibration curves were prepared by spiking 1E7-03, DP1, DP3 and DP1-07 into the drug-free mouse plasma and subjected to similar sample extraction procedures. The plasma concentration–time profile of each analyte was constructed and pharmacokinetic parameters were determined by non-compartmental method using Phoenix WinNonlin Version 5.3 (Pharsight Corporation, Mountain View, CA).
A 10 μl aliquots from each sample were loaded to a LC-20AD nano HPLC system (Shimadzu Corporation, Columbia, MD, USA) coupled to LTQ XL Orbitrap mass spectrometer (Thermo Fisher Scientific) with the installed Xcalibur software (version 2.0.7, Thermo Fisher Scientific). Liquid chromatography was carried out on an in-house made nano-HPLC column (Polymicro Technologies Inc., Phoenix, AZ, USA) packed with reverse phase PolySulfoethyl A, 5μM, 200 Å (PolyLC Inc., Columbia, MD, USA). Mobile phase A was 0.1% formic acid in water and mobile phase B - 0.1% formic acid in acetonitrile. The elution was performed at a flow rate of 600 nl/min over 40 min using a multisegment linear gradient of mobile phase B as follows: 0–6.02 min, 1% B; 6.02–6.11 min, 1–2% B; 6.11–20 min, 2−80% B; 20–25 min, 80% B; 25–30 min, 80–85% B; 30–31 min, […]; 31–40 min, 2% B (v/v). The Orbitrap was operated under data-dependent acquisition mode. The spray voltage, capillary temperature and capillary voltage were set to 2.0 kV, 200 °C, and 39.5 V, respectively. Full-scan mass spectra were acquired in Orbitrap over 150−1500 m/z with a resolution of 30 000, followed by MS^n scans by CID activation mode. The precursor ions were fragmented with collision energy of 18 with activation Q of 0.25 and an activation time of 30 ms. Dynamic exclusion was enabled with a repeat count of 2, a repeat duration of 15 s, exclusion duration of 20 s, an exclusion list size of 50. The mass spectrometer was also operated in NL scan of m/z 18.01, 45.05, 71.03 and 72.02 and MRM mode. The MRM transitions were controlled by a segmented program in order to short the scan cycle and increase sensitivity.

[2] = target: T1, QuantiLum Recombinant Luciferase (Photinus pyralis, UniProt P08659); test: Purified luciferase inhibition in vitro; format: biochemical; details: for effect on luciferase activity in vitro: in words, 1E7-03 at concentrations below 100 μM; for IC50: purified luciferase, room temperature, 10 min
T1 construct: purchased
T1 sequence (P08659 whole entry): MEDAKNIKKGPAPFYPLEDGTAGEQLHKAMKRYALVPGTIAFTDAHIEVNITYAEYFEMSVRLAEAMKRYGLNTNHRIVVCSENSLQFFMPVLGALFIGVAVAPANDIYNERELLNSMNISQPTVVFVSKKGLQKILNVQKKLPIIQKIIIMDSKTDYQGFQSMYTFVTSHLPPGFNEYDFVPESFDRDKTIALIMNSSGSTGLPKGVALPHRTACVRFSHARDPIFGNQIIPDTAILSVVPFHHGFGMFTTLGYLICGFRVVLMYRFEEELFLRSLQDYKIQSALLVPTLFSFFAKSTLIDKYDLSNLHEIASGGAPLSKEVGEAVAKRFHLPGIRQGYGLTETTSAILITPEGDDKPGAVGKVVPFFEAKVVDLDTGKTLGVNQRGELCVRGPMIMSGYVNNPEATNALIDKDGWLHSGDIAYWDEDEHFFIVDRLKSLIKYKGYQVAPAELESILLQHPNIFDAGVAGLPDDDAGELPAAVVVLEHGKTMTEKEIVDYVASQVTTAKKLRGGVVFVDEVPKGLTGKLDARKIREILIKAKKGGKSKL
Method: QuantiLum Recombinant Luciferase (20 ng/ml in PBS) was added into 96-well plate (100 μl/well) and incubated with serial dilutions of the compounds or vehicle (DMSO) under room temperature for 10 min. 100 μl of reconstituted luciferase buffer (Luclite Kit, Perkin Elmer) was added to each well, incubated for another 10 min and luminescence was measured using Glo-Max Microplate Multimode reader (Promega).

[3] = target: T2, Recombinant PP1 (human PP1α residues 7–300) (Homo sapiens, UniProt P62136); test: Surface plasmon resonance direct binding to immobilized PP1; details: SPR
T2 construct: human PP1α (residues 7–300); His; made in house; host or cells: BL21 (DE3) Escherichia coli, co-expressed with GroEL/GroES chaperones
T2 sequence (P62136 7-300): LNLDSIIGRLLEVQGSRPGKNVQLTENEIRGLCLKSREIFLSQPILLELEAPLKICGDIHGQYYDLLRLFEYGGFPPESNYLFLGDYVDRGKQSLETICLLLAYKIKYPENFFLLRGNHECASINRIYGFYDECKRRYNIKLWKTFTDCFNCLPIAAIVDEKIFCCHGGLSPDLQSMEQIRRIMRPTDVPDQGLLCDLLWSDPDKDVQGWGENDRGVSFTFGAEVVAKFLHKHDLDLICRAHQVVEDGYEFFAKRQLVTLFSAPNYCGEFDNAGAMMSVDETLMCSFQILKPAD
Method: PP1 was purified as previously described. BL21 (DE3) Escherichia coli cells (Invitrogen, Carlsbad, CA, USA) were -transformed with a vector expressing human PP1α (residues 7–300) and pGR07, which expresses GroEL/[…] chaperones (both gifts from Dr Mathieu Bollen and Monique Beullens, KU Leuven, Belgium). The cells were grown in media supplemented with 1 mM MnCl2 at 30°C to an A600 =0.5. Arabinose (2 g per L) was added to induce expression of the GroEL/GroES chaperones. When A600 =1 was reached, the cells were transferred to 10°C and PP1 expression was induced with 0.1 mM Isopropyl β-D-1-thiogalactopyranoside for 20 hrs. Harvested cells were lysed using sonication in a solution containing in 50 mM Tris-HCl (pH 8.0), 5 mM imidazole, 700 mM NaCl, 1 mM MnCl2, 0.1% Triton X-100 (v/v) and protease inhibitors. His-tagged PP1 was purified using a Ni-NTA IMAC column (Qiagen, Valencia, CA, USA). Purified PP1 was dialyzed and stored at −70°C in 50 mM Tris-HCl (pH 8.0), 5 mM imidazole, 700 mM NaCl and 1 mM MnCl2. PP1 activity was then assayed as previously described.
The SPR measurements were conducted on Biacore T200 instrument (GE Healthcare, Piscataway, NJ) at 25°C. Recombinant PP1 was immobilized on a CM5 chip by amine coupling (GE Healthcare). PP1 (200 nM) was captured on flow cell 2 in 10 mM acetate buffer, pH 5.0, supplemented with 2 mM MnCl2. […] Flow cell 1 was used as a reference surface to subtract background signal. Also injections of the buffer alone were used to provide double reference subtraction. […] For binding and kinetics experiments, all compounds were diluted in the running buffer, at 40 μM, 20 μM, 10 μM, 5 μM, 2.5 μM, 1.25 μM and 0 μM and then passed over the two flow cells at a flow rate of 100 μl/min for 60 sec. The number of response units was recorded after the subtraction of the reference flow cell's value (Fc2-1). Two repetitions were performed for each injection. Data were analyzed using the BiaEvaluation software of Biacore with a 1:1 binding model. […] All the small molecular weight compounds were used at 1 μM.

[4] = mouse plasma after i.p. 100 mg/kg DP1-07, parent and products DP1-07P1, DP1-07P2
[5] = mouse plasma after i.p. 30 mg/kg 1E7-03, parent and its metabolites DP1, DP3, mean, n=3
[6] = mouse plasma after i.p. 30 mg/kg 1E7-03, parent and metabolites DP1, DP3
[7] = mouse, plasma, 30 mg/kg, mouse plasma after i.p. 30 mg/kg 1E7-03, parent and metabolites DP1, DP3
[8] = 1:1 binding model, 25°C, read-out: PP1 WT KD
[9] = as quoted in the discussion, read-out: KD

SMILES	AUC(0-t) [1, 4]	MRT last [1, 4]	half-life [1, 4]	Cmax ([1]; mouse plasma after i.p. 100 mg/kg DP1-07, parent and products DP1-07P1, DP1-07P2 (quantified with DP1 and DP3 calibration curves))	Tmax ([1]; mouse, plasma, 100 mg/kg, mouse plasma after i.p. 100 mg/kg DP1-07, parent and products DP1-07P1, DP1-07P2)	concentration at 24 h ([1]; mouse, plasma, i.p. 100 mg/kg DP1-07, 24 hrs, read-out: concentration present in murine blood 24 hrs post-injection)	effect on luciferase activity in vitro [2]	Cmax [1, 5]	AUC(0-t) [1, 6]	MRT last [1, 6]	half-life [1, 6]	Tmax [1, 7]	Kd [3, 8]	Kd [3, 9]	IC50 [2]
COc1ccc(/C=C2\CCCc3c2nc2ccccc2c3C(=O)OC(C)C(=O)OC(C)(C)C)cc1OC (centres unmarked) [DP1-07]	706 µM·h	10.7 h	14.3 h	42.7 µM	~6 h	18 µM	did not inhibit								
COc1ccc(/C=C2\CCc3c2nc2ccccc2c3C(=O)O)cc1OC [DP3]								3.61 µM	30.7 µM·h	4.39 h	2.44 h	1 h	4.88 µM	~4 µM	7.2 µM
COc1ccc(/C=C2\CCc3c2nc2ccccc2c3C(=O)OC(C)C(=O)O)cc1OC (centres unmarked) [DP1]								9.09 µM	124 µM·h	4.98 h	3.2 h	3 h	3.75 µM	~4 µM	37 µM
CCNC(=O)NC(=O)C(C)OC(=O)c1c2c(nc3ccccc13)/C(=C/c1ccc(OC)c(OC)c1)CC2 (centres unmarked) [1E7-03]							no effect	3.43 µM	12.2 µM·h	2.4 h	3.39 h	0.5 h	6.16 µM	6.2 µM	> 180 µM
